Patent US20160136229A1, “MATERIALS FOR POSITIVE CATHEPSIN B MODULATION AND METHODS OF USE FOR TREATING MILD COGNITIVE IMPAIRMENT (MCI), EARLY DEMENTIA, A-SYNUCLEINOPATHY, TRAUMATIC BRAIN INJURY, CARDIOMYOPATHY, EYE DISEASE AND SKIN DAMAGE” (University of North Carolina at Pembroke, priority 2013, published 2016)

How the values were obtained:
Fischer rats = settings: cited from earlier work
[1] = test system: transgenic mouse model of Alzheimer's disease; settings: cited from earlier work
active cathepsin B = assay: Active cathepsin B in rat organotypic heart slice cultures (Aβ-induced cardiomyopathy model); assay type: cell-based; settings: 2 days of treatment, P=0.027 vs vehicle
Method: FIG. 9. The active form of cathepsin B is reduced in the slice model of Δβ-induced cardiomyopathy. Organotypic heart slice cultures from rats were treated with the control vehicle solution or with Δβ42, the peptide that accumulates in Alzheimer's disease brains as well as in heart tissue during some forms of cardiomyopathy.
To test for changes in cathepsin B during protein accumulation induced myopathy, heart slice cultures from rat were prepared and treated with […], the peptide that accumulates in Alzheimer's disease brains as well as in heart tissue during some forms of cardiomyopathy (Bateman et al., 2012; Sanbe et al., 2004, 2005).

## CC12CC3CC(C)(C1)CC(N)(C3)C2 [memantine]
Fischer rats
  spatial memory: failed to significantly improve
[1]
  spatial learning: improve spatial learning

## Aβ42: the peptide that accumulates in Alzheimer's disease brains as well as in heart tissue during some forms of cardiomyopathy
Active cathepsin B
  active cathepsin B in heart slices: significant decrease
